Drawing on US11524940B1, “Inhibitors of cysteine proteases and methods of use thereof” (priority 2020, dated 2022), this text covers EC50 for 34 molecules.

The target of this assay is 229E Mpro (Human coronavirus 229E (HCoV-229E), UniProt P0C6X1). Kind of assay: 229E Mpro activity. It is filed as biochemical.

Read-outs that look alike come from different tables or passages of the source.

229E Mpro, sequence (P0C6X1 2966-3267 limits assumed): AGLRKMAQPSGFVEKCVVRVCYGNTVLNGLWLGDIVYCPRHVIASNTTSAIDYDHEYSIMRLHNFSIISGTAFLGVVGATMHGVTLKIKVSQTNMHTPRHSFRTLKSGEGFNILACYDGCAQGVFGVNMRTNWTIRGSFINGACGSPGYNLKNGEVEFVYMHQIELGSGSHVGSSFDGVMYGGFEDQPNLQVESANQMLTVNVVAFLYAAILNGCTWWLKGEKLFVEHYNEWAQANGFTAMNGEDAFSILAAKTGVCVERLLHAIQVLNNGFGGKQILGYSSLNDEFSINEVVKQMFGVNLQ
Description: Compounds are assayed using standard methods to assess compound activity and IC50. […] The assay buffer contains 20 mM of Tris-HCl (pH 7.3), 100 mM of NaCl, 1 mM of EDTA, 5mM of TCEP and 0.1% BSA.

As for `COCCOCCOc1cccc2[nH]c(C(=O)NC(CC(C)(C)C)C(=O)NC(C#N)CC3CCCNC3=O)cc12` (single isomer, unassigned) [875 (Isomer 2)], under “229E Mpro EC50”, the concentration for a half-maximal effect (EC50) (in general, the midpoint of the concentration-response curve) is under 2 µM. Regarding `COCCOCCOc1cccc2[nH]c(C(=O)NC(CC(C)(C)C)C(=O)NC(C#N)CC3CCCNC3=O)cc12` (single isomer, unassigned) [875 (Isomer 3)], the concentration giving a half-maximal response (EC50) (read-out: 229E Mpro EC50) was in the range of 10 to 30 µM. `N#C[C@H](C[C@@H]1CCNC1=O)NC(=O)C1CC2(CCCCC2)CN1C(=O)c1cc2ccc(Cl)cc2[nH]1` (single isomer, unassigned) [878 (Isomer 1)]: for the setting “read-out: 229E Mpro EC50”, the EC50 was under 2 µM.

With `N#C[C@H](C[C@@H]1CCNC1=O)NC(=O)C1CC2(CCCCC2)CN1C(=O)c1cc2ccc(Cl)cc2[nH]1` (single isomer, unassigned) [878 (Isomer 2)], under “read-out: 229E Mpro EC50”, the EC50 was 10 to 30 µM. Still for that read-out and setting: in the case of `COc1ccc2[nH]c(C(=O)N3CC4(CCCCC4)CC3C(=O)N[C@H](C#N)C[C@@H]3CCNC3=O)cc2c1Cl` (single isomer, unassigned) [880 (Isomer 1)] it was 10 to 30 µM; in that of `COc1ccc2[nH]c(C(=O)N3CC4(CCCCC4)CC3C(=O)N[C@H](C#N)C[C@@H]3CCNC3=O)cc2c1Cl` (single isomer, unassigned) [880 (Isomer 2)], under 2 µM; in that of `N#C[C@H](C[C@@H]1CCNC1=O)NC(=O)C1CC2(CCCCC2)CN1C(=O)c1cc2cccc(Cl)c2[nH]1` (single isomer, unassigned) [984 (Isomer 1)], under 2 µM. Same read-out and setting: the result for `N#C[C@H](C[C@@H]1CCNC1=O)NC(=O)C1CC2(CCCCC2)CN1C(=O)c1cc2cccc(Cl)c2[nH]1` (single isomer, unassigned) [984 (Isomer 2)] reads over 30 µM; that for `N#C[C@H](C[C@@H]1CCNC1=O)NC(=O)C1CC2(CCCCC2)CN1C(=O)c1cc2ccc(Cl)c(Cl)c2[nH]1` (single isomer, unassigned) [986 (Isomer 1)], under 2 µM. On the same count and under the same terms, in the case of `N#C[C@H](C[C@@H]1CCNC1=O)NC(=O)C1CC2(CCCCC2)CN1C(=O)c1cc2ccc(Cl)c(Cl)c2[nH]1` (single isomer, unassigned) [986 (Isomer 2)] it was over 30 µM; in that of `COc1cccc2[nH]c(C(=O)N[C@@H](CC3CC3)C(=O)N[C@](C)(C#N)CC3CCNC3=O)cc12` (single isomer, unassigned) [1055 (Isomer 1)], over 30 µM. Regarding `CC1(C)CCC(C[C@@H](C#N)NC(=O)[C@H](CC2CC2)NC(=O)c2cc3cccc(Cl)c3[nH]2)C(=O)N1` (single isomer, unassigned) [Compound 749 (Isomer 1)], the EC50 (229E Mpro EC50) lay within 2 to 10 µM. As to `CC1(C)CCC(C[C@@H](C#N)NC(=O)[C@H](CC2CC2)NC(=O)c2cc3cccc(Cl)c3[nH]2)C(=O)N1` (single isomer, unassigned) [Compound 749 (Isomer 2)], the EC50 (read-out: 229E Mpro EC50) was in the range of 2 to 10 µM.

In the case of `CC(C)C[C@H](NC(=O)c1nc2ncccc2[nH]1)C(=O)N[C@H](C#N)C[C@@H]1CCNC1=O` [Compound 131, N-[(1S)-1-[[(1S)-1-cyano-2-[(3S)-2-oxopyrrolidin-3-yl]ethyl]carbamoyl]-3-methyl-butyl]-1H-imidazo[4,5-b]pyridine-2-carboxamide], where the note is “read-out: 229E Mpro EC50”, the EC50 was under 2 µM. Turning to `COc1cccc2[nH]c(C(=O)N[C@@H](CC(C)C)C(=O)N[C@H](/C=C/S(C)(=O)=O)C[C@@H]3CCNC3=O)cc12` [Compound 136, 4-methoxy-N-[(1S)-3-methyl-1-[[(E,1S)-3-methylsulfonyl-1-[[(3S)-2-oxopyrrolidin-3-yl]methyl]allyl]carbamoyl]butyl]-1H-indole-2-carboxamide], the concentration for a half-maximal effect (EC50) (read-out: 229E Mpro EC50) was under 2 µM.

Consider `COc1cccc2[nH]c(C(=O)N[C@H](C(=O)N[C@H](C#N)C[C@@H]3CCNC3=O)[C@@H]3Cc4ccccc4O3)cc12` [Compound 147, N-((S)-2-(((S)-1-cyano-2-((S)-2-oxopyrrolidin-3-yl)ethyl)amino)-1-((S)-2,3-dihydrobenzofuran-2-yl)-2-oxoethyl)-4-methoxy-1H-indole-2-carboxamide], for which the concentration for a half-maximal effect (EC50) (read-out: 229E Mpro EC50) was over 30 µM. Consider `COc1cccc2[nH]c(C(=O)N[C@H](C(=O)N[C@H](C#N)C[C@@H]3CCNC3=O)C3Cc4ccccc4C3)cc12` [Compound 149, N-[(1S)-2-[[(1S)-1-cyano-2-[(3S)-2-oxopyrrolidin-3-yl]ethyl]amino]-1-indan-2-yl-2-oxo-ethyl]-4-methoxy-1H-indole-2-carboxamide], for which the EC50 (read-out: 229E Mpro EC50) lay in the range of 2 to 10 µM.

For `COc1cccc2[nH]c(C(=O)N[C@@H](Cc3cccc(Cl)c3)C(=O)N[C@H](C#N)C[C@@H]3CCNC3=O)cc12` [Compound 153], for the setting “read-out: 229E Mpro EC50”, the EC50 lay within 10 to 30 µM. For the molecule `COc1cccc2[nH]c(C(=O)N3C[C@H](OC(C)(C)C)C[C@H]3C(=O)N[C@H](C#N)C[C@@H]3CCNC3=O)cc12` [Compound 165, (2S,4R)-4-(tert-butoxy)-N-((S)-1-cyano-2-((S)-2-oxopyrrolidin-3-yl)ethyl)-1-(4-methoxy-1H-indole-2-carbonyl)pyrrolidine-2-carboxamide], the EC50 (read-out: 229E Mpro EC50) is over 30 µM. On to `COc1cccc2[nH]c(C(=O)N3CCC4(CC4)C[C@H]3C(=O)N[C@H](C#N)C[C@@H]3CCNC3=O)cc12` [Compound 183, (S)-N-((S)-1-cyano-2-((S)-2-oxopyrrolidin-3-yl)ethyl)-6-(4-methoxy-1H-indole-2-carbonyl)-6-azaspiro[2.5]octane-5-carboxamide], for which the EC50 (read-out: 229E Mpro EC50) lay within 2 to 10 µM.

In the case of `N#C[C@H](C[C@@H]1CCNC1=O)NC(=O)[C@@H]1C[C@@H](c2ccccc2)CN1C(=O)/C=C/c1ccc(Cl)cc1F` [Compound 209, (2S,4S)-1-((E)-3-(4-chloro-2-fluorophenyl)acryloyl)-N-((S)-1-cyano-2-((S)-2-oxopyrrolidin-3-yl)ethyl)-4-phenylpyrrolidine-2-carboxamide], under “read-out: 229E Mpro EC50”, the EC50 lay within 2 to 10 µM. Same read-out and setting: the result for `N#C[C@H](C[C@@H]1CCNC1=O)NC(=O)[C@@H]1CCCNN1C(=O)/C=C/c1ccc(Cl)cc1F` [Compound 213, (3S)-2-[(E)-3-(4-chloro-2-fluoro-phenyl)prop-2-enoyl]-N-[(1S)-1-cyano-2-[(3S)-2-oxopyrrolidin-3-yl]ethyl]hexahydropyridazine-3-carboxamide] reads over 30 µM; that for `COc1cccc2[nH]c(C(=O)N[C@@H](CC(C)C)C(=O)N[C@H](C#N)Cc3cncn3C)cc12` [Compound 225], over 30 µM.

On to `COc1cccc2[nH]c(C(=O)N[C@@H](CC(C)C)C(=O)N[C@H](C#N)Cc3cn(C)cn3)cc12` [Compound 227, N-[(1S)-1-[[(1S)-1-cyano-2-(1-methylimidazol-4-yl)ethyl]carbamoyl]-3-methyl-butyl]-4-methoxy-1H-indole-2-carboxamide], for which, where the note is “read-out: 229E Mpro EC50”, the EC50 was over 30 µM.

Consider `N#C[C@H](C[C@@H]1CCNC1=O)NC(=O)[C@H](CC1CC1)N1CCc2cc[nH]c2C1=O` [Compound 267, (2S)-N-[(1S)-1-cyano-2-[(3S)-2-oxopyrrolidin-3-yl]ethyl]-3-cyclopropyl-2-(7-oxo-4,5-dihydro-1H-pyrrolo[2,3-c]pyridin-6-yl)propanamide], for which the EC50 (read-out: 229E Mpro EC50) was under 2 µM. On the same count and under the same terms, in the case of `N#C[C@H](C[C@@H]1CCNC1=O)NC(=O)[C@@H](CC1CC1)N1CCc2cc[nH]c2C1=O` [Compound 267A, (2R)-N-[(1S)-1-cyano-2-[(3S)-2-oxopyrrolidin-3-yl]ethyl]-3-cyclopropyl-2-(7-oxo-4,5-dihydro-1H-pyrrolo[2,3-c]pyridin-6-yl)propanamide] it was over 30 µM; in that of `N#C[C@H](C[C@@H]1CCNC1=O)NC(=O)[C@H](CC1CC1)n1ccc2[nH]cnc2c1=O` [Compound 269, (2S)-N-[(1S)-1-cyano-2-[(3S)-2-oxopyrrolidin-3-yl]ethyl]-3-cyclopropyl-2-(4-oxo-3H-imidazo[4,5-c]pyridin-5-yl)propanamide], over 30 µM; in that of `CN1CCCC[C@]12CCN([C@H](CC1CC1)C(=O)N[C@H](C#N)C[C@@H]1CCNC1=O)C2=O` [Compound 273A, (2R)-N-[(1S)-1-cyano-2-[(3S)-2-oxopyrrolidin-3-yl]ethyl]-3-cyclopropyl-2-[(5R)-6-methyl-1-oxo-2,6-diazaspiro[4.5]decan-2-yl]propanamide], over 30 µM.

With `CN1CCCC[C@@]12CCN([C@H](CC1CC1)C(=O)N[C@H](C#N)C[C@@H]1CCNC1=O)C2=O` [Compound 273B, (2R)-N-[(1S)-1-cyano-2-[(3S)-2-oxopyrrolidin-3-yl]ethyl]-3-cyclopropyl-2-[(5S)-6-methyl-1-oxo-2,6-diazaspiro[4.5]decan-2-yl]propanamide], the EC50 (read-out: 229E Mpro EC50) is over 30 µM.

Consider `CN1CCCC[C@]12CCN([C@@H](CC1CC1)C(=O)N[C@H](C#N)C[C@@H]1CCNC1=O)C2=O` [Compound 273C, (2S)-N-[(1S)-1-cyano-2-[(3S)-2-oxopyrrolidin-3-yl]ethyl]-3-cyclopropyl-2-[(5R)-6-methyl-1-oxo-2,6-diazaspiro[4.5]decan-2-yl]propanamide], for which the EC50 (read-out: 229E Mpro EC50) was 2 to 10 µM. With `COc1cccc2[nH]c(C(=O)N[C@@H](CC3CC3)C(=O)N[C@@]3(C#N)CCc4cccnc4C3)cc12` [Compound 279], the EC50 (read-out: 229E Mpro EC50) was over 30 µM. Consider `COc1cccc2[nH]c(C(=O)N3C[C@H]4CCC[C@H]4[C@H]3C(=O)N[C@H](C#N)C[C@@H]3CCNC3=O)cc12` [Compound 305], for which the EC50 (read-out: 229E Mpro EC50) is under 2 µM. Still for that read-out and setting: the result for `COc1cccc2[nH]c(C(=O)N[C@@H](CC(C)C)C(=O)N[C@@H](C[C@@H]3CCNC3=O)C(C#N)Nc3ccccc3)cc12` (stereo partly drawn) [Compound 327, N-[(1S)-1-[[(1S)-2-anilino-2-cyano-1-[[(3S)-2-oxopyrrolidin-3-yl]methyl]ethyl]carbamoyl]-3-methyl-butyl]-4-methoxy-1H-indole-2-carboxamide] reads under 2 µM; that for `CCCN1C(=N)C([C@H](C[C@@H]2CCNC2=O)NC(=O)[C@H](CC(C)C)NC(=O)c2cc3c(OC)cccc3[nH]2)OC1=O` (stereo partly drawn) [Compound 355, N-((2S)-1-(((1 S)-1-(4-imino-2-oxo-3-propyloxazolidin-5-yl)-2-((S)-2-oxopyrrolidin-3-yl)ethyl)amino)-4-methyl-1-oxopentan-2-yl)-4-methoxy-1H-indole-2-carboxamide], 2 to 10 µM.
